Measured values reported in ChEMBL document CHEMBL1201862, “PubChem BioAssay data set” (2004).
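Following 48 hours of exposure in 96-well plates, responses at five concentrations were used to interpolate endpoints linearly. GI50: concentration for 50% inhibition of growth.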 Active and inactive are the calls of the source. No stated cut-off is given here; in the data, active = GI50 up to about 1.1 µM and inactive = higher.

Key:
Experiment in all cases: NCI anticancer screen, dose series, 48 h
PC-3 = system: PC-3
MDA-MB-231 = system: MDA-MB-231
Hs-578T = system: Hs-578T
MDA-N = system: MDA-N
LXFL 529 = system: LXFL 529
M19-MEL = system: M19-MEL
RXF 631 = system: RXF 631
HOP-18 = system: HOP-18

| SMILES | GI50 (PC-3) | GI50 (MDA-MB-231) | GI50 (Hs-578T) | GI50 (MDA-N) | GI50 (LXFL 529) | GI50 (M19-MEL) | GI50 (RXF 631) | GI50 (HOP-18) |
| --- | --- | --- | --- | --- | --- | --- | --- | --- |
| NC(Cc1ccc(OCc2ccccc2)cc1)C(=O)NC(Cc1ccccc1)C(=O)Oc1c(Cl)c(Cl)c(Cl)c(Cl)c1Cl (stereo not given) | 17.7 µM (inactive) | 13 µM (inactive) | 14 µM (inactive) | 12.7 µM (inactive) | – | – | – | – |
| O=c1ccc2nc3cc(Br)ccc3sc-2c1 | – | – | – | – | 89.7 µM (inactive) | 55.1 µM (inactive) | – | – |
| CCCCC(=O)c1c(O)nc2sccn2c1=O | > 10 µM (inactive) | > 10 µM (inactive) | > 10 µM (inactive) | > 10 µM (inactive) | – | – | – | – |
| COc1ccc(C2CC(c3c(O)ccc4ccccc34)=NN2)cc1OC (stereo not given) | 3.54 µM (inactive) | 9.79 µM (inactive) | 2.16 µM (inactive) | 3.95 µM (inactive) | – | – | – | – |
| Cc1cccc(C(C)C)c1NC(=O)CC1Sc2ccccc2NC1=O (stereo not given) | – | – | – | – | 79.1 µM (inactive) | – | 85.1 µM (inactive) | > 100 µM (inactive) |
| CC(C)(C)[Si](C)(C)OCC1OC(n2cnc3c(N)ncnc32)CC1O (stereo not given) | 53.1 µM (inactive) | 52.5 µM (inactive) | 55.5 µM (inactive) | > 100 µM (inactive) | – | – | – | – |
| [O-][n+]1c2c([n+]([O-])c3ccccc31)-c1cccc3cccc-2c13 | > 100 µM (inactive) | 33 µM (inactive) | 32.9 µM (inactive) | > 100 µM (inactive) | – | – | – | – |
| COC1CCC(O)C(CO)O1 (stereo not given) | – | – | – | – | 50.6 µM (inactive) | 60.7 µM (inactive) | – | – |
| CN(C)C(=O)OCOC(=O)N(C)C | – | – | – | – | – | > 100 µM (inactive) | – | > 100 µM (inactive) |
| CC1(C)OC2CC(=O)OCC23C1CC(=O)C1(C)C3CCC2(C)C(c3ccoc3)OC(=O)C3OC321 (stereo not given) | – | – | – | – | – | > 125 µM (inactive) | – | > 125 µM (inactive) |
| O=C(O)C12CCCC(CCC1)C2 | – | – | – | – | > 100 µM (inactive) | – | > 100 µM (inactive) | – |
| COc1cc(C2c3cc4c(cc3[C@@H](Nc3ccc5c(c3)OCO5)C3COC(=O)[C@H]23)OCO4)cc(OC)c1O (stereo not given in full) | – | – | – | – | – | 1.65 µM (inactive) | – | 0.766 µM (active) |
